Measurements from PubChem BioAssay AID272 (DTP/NCI, 2004).
“And” between values parts separate entries of the source, which are not always exact repeats. Equal entries are not always repeated. Results filed as inconclusive are left out.

Test system: Lewis lung carcinoma i.m., BDF1 mice, T/C %
Experiment: NCI In Vivo Anticancer Drug Screen. Data for tumor model Lewis Lung Carcinoma (intramuscular) in B6D2F1 (BDF1) mice
Outline: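 Antitumour activity is assessed in transplanted-tumour mice. Endpoint is survival or tumour size, normalised to vehicle-dosed controls (T/C).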

[1] = endpoint: mean tumor weight (est.), dose: 6.25 mg/kg/injection, schedule: Q01DX011 (ip), vehicle: saline, higher = larger tumour
[2] = endpoint: mean tumor weight (est.), dose: 12.5 mg/kg/injection, schedule: Q01DX011 (ip), vehicle: saline, higher = larger tumour

**Q.** With `CN(C)/N=N/c1nc[nH]c1C(N)=O` as the molecule, how does the T/C (endpoint: mean tumor weight, dose: 50.0 mg/kg/injection, schedule: Q01DX011 (ip), vehicle: steriod suspending solution, higher = larger tumour) read?
**A.** Its T/C is 63 % of control.

**Q.** And the T/C (endpoint: mean tumor weight, dose: 100.0 mg/kg/injection, schedule: Q01DX011 (ip), vehicle: steriod suspending solution, higher = larger tumour)?
**A.** The T/C was 62 % of control.

**Q.** And the T/C (endpoint: mean tumor weight, dose: 200.0 mg/kg/injection, schedule: Q01DX011 (ip), vehicle: steriod suspending solution, higher = larger tumour)?
**A.** The T/C was 44 % of control.

**Q.** What about the T/C (endpoint: median survival time, dose: 23.0 mg/kg/injection, schedule: Q01DX011 (ip), vehicle: Klucel (hydroxypropylcellulose) (HPC), higher = longer survival) of the same molecule?
**A.** Its T/C is 112 % of control and 115 % of control.

**Q.** What about the T/C (endpoint: median survival time, dose: 25.0 mg/kg/injection, schedule: Q01DX009 (ip), vehicle: Klucel (hydroxypropylcellulose) (HPC), higher = longer survival) of the same molecule?
**A.** Its T/C is 101 % of control.

**Q.** And the T/C (endpoint: median survival time, dose: 39.0 mg/kg/injection, schedule: Q01DX010 (ip), vehicle: Klucel (hydroxypropylcellulose) (HPC), higher = longer survival)?
**A.** Its T/C is 102 % of control and 104 % of control.

**Q.** And the T/C (endpoint: median survival time, dose: 39.0 mg/kg/injection, schedule: Q01DX011 (ip), vehicle: Klucel (hydroxypropylcellulose) (HPC), higher = longer survival)?
**A.** Its T/C is 108 % of control and 116 % of control.

**Q.** What about the T/C (endpoint: median survival time, dose: 50.0 mg/kg/injection, schedule: Q01DX009 (ip), vehicle: Klucel (hydroxypropylcellulose) (HPC), higher = longer survival) of the same molecule?
**A.** The T/C was 120 % of control.

**Q.** And the T/C (endpoint: median survival time, dose: 50.0 mg/kg/injection, schedule: Q01DX011 (ip), vehicle: steriod suspending solution, higher = longer survival)?
**A.** The T/C was 105 % of control.

**Q.** What about the T/C (endpoint: median survival time, dose: 65.0 mg/kg/injection, schedule: Q01DX010 (ip), vehicle: Klucel (hydroxypropylcellulose) (HPC), higher = longer survival) of the same molecule?
**A.** The T/C was 112 % of control and 117 % of control.

**Q.** What about the T/C (endpoint: median survival time, dose: 65.0 mg/kg/injection, schedule: Q01DX011 (ip), vehicle: Klucel (hydroxypropylcellulose) (HPC), higher = longer survival) of the same molecule?
**A.** The T/C was 88 % of control and 93 % of control.

**Q.** What about the T/C (endpoint: median survival time, dose: 100.0 mg/kg/injection, schedule: Q01DX009 (ip), vehicle: Klucel (hydroxypropylcellulose) (HPC), higher = longer survival) of the same molecule?
**A.** The T/C was 123 % of control.

**Q.** What about the T/C (endpoint: median survival time, dose: 100.0 mg/kg/injection, schedule: Q01DX011 (ip), vehicle: steriod suspending solution, higher = longer survival) of the same molecule?
**A.** The T/C was 97 % of control.

**Q.** And the T/C (endpoint: median survival time, dose: 108.0 mg/kg/injection, schedule: Q01DX010 (ip), vehicle: Klucel (hydroxypropylcellulose) (HPC), higher = longer survival)?
**A.** The T/C was 88 % of control and 93 % of control.

**Q.** What about the T/C (endpoint: median survival time, dose: 108.0 mg/kg/injection, schedule: Q01DX011 (ip), vehicle: Klucel (hydroxypropylcellulose) (HPC), higher = longer survival) of the same molecule?
**A.** The T/C was 75 % of control.

**Q.** What about the T/C (endpoint: median survival time, dose: 180.0 mg/kg/injection, schedule: Q01DX010 (ip), vehicle: Klucel (hydroxypropylcellulose) (HPC), higher = longer survival) of the same molecule?
**A.** Its T/C is 79 % of control.

**Q.** What about the T/C (endpoint: median survival time, dose: 180.0 mg/kg/injection, schedule: Q01DX011 (ip), vehicle: Klucel (hydroxypropylcellulose) (HPC), higher = longer survival) of the same molecule?
**A.** Its T/C is 63 % of control.

**Q.** What about the T/C (endpoint: median survival time, dose: 200.0 mg/kg/injection, schedule: Q01DX011 (ip), vehicle: steriod suspending solution, higher = longer survival) of the same molecule?
**A.** Its T/C is 97 % of control.

**Q.** What about the T/C (endpoint: median survival time, dose: 300.0 mg/kg/injection, schedule: Q01DX010 (ip), vehicle: Klucel (hydroxypropylcellulose) (HPC), higher = longer survival) of the same molecule?
**A.** Its T/C is 58 % of control.

**Q.** And the T/C (endpoint: median survival time, dose: 300.0 mg/kg/injection, schedule: Q01DX011 (ip), vehicle: Klucel (hydroxypropylcellulose) (HPC), higher = longer survival)?
**A.** Its T/C is 55 % of control.

**Q.** And the T/C (endpoint: median survival time, dose: 500.0 mg/kg/injection, schedule: Q01DX010 (ip), vehicle: Klucel (hydroxypropylcellulose) (HPC), higher = longer survival)?
**A.** The T/C was 57 % of control.

**Q.** And the T/C (endpoint: median survival time, dose: 500.0 mg/kg/injection, schedule: Q01DX011 (ip), vehicle: Klucel (hydroxypropylcellulose) (HPC), higher = longer survival)?
**A.** Its T/C is 51 % of control.

**Q.** `FC(F)(F)c1ccc(-c2ccc(OCCN3CCCC3)cc2)cc1` was tested. Which T/C (endpoint: mean tumor weight, dose: 3.13 mg/kg/injection, schedule: Q01DX011 (ip), vehicle: saline, higher = larger tumour) did it give?
**A.** The T/C was 57 % of control.

**Q.** And the T/C (endpoint: mean tumor weight, dose: 6.25 mg/kg/injection, schedule: Q01DX011 (ip), vehicle: saline, higher = larger tumour)?
**A.** The T/C was 62 % of control.

**Q.** What about the T/C (endpoint: median survival time, dose: 3.13 mg/kg/injection, schedule: Q01DX011 (ip), vehicle: saline, higher = longer survival) of the same molecule?
**A.** The T/C was 104 % of control.

**Q.** And the T/C (endpoint: median survival time, dose: 6.25 mg/kg/injection, schedule: Q01DX011 (ip), vehicle: saline, higher = longer survival)?
**A.** The T/C was 100 % of control.

**Q.** Which results are given for `C/C(=C\COc1ccc2ccc(=O)oc2c1)C1=CC(=O)C(C)(C)O1`?
**A.** T/C (endpoint: mean tumor weight, dose: 100.0 mg/kg/injection, schedule: Q01DX011 (ip), vehicle: saline, higher = larger tumour): 55 % of control; T/C (endpoint: mean tumor weight, dose: 200.0 mg/kg/injection, schedule: Q01DX011 (ip), vehicle: saline, higher = larger tumour): 47 % of control; T/C (endpoint: mean tumor weight, dose: 400.0 mg/kg/injection, schedule: Q01DX011 (ip), vehicle: saline, higher = larger tumour): 62 % of control; T/C (endpoint: median survival time, dose: 100.0 mg/kg/injection, schedule: Q01DX011 (ip), vehicle: saline, higher = longer survival): 108 % of control; T/C (endpoint: median survival time, dose: 200.0 mg/kg/injection, schedule: Q01DX011 (ip), vehicle: saline, higher = longer survival): 100 % of control; T/C (endpoint: median survival time, dose: 400.0 mg/kg/injection, schedule: Q01DX011 (ip), vehicle: saline, higher = longer survival): 102 % of control

**Q.** `O=C1C=C(N2CC2)c2ccccc2C1=O` was tested. Which T/C (endpoint: mean tumor weight (est.), dose: 5.0 mg/kg/injection, schedule: Q01DX011 (ip), vehicle: saline, higher = larger tumour) did it give?
**A.** The T/C was 74 % of control.

**Q.** And the T/C (endpoint: mean tumor weight (est.), dose: 10.0 mg/kg/injection, schedule: Q01DX011 (ip), vehicle: saline, higher = larger tumour)?
**A.** The T/C was 58 % of control.

**Q.** What about the T/C (endpoint: median survival time, dose: 5.0 mg/kg/injection, schedule: Q01DX011 (ip), vehicle: saline, higher = longer survival) of the same molecule?
**A.** Its T/C is 100 % of control.

**Q.** And the T/C (endpoint: median survival time, dose: 10.0 mg/kg/injection, schedule: Q01DX011 (ip), vehicle: saline, higher = longer survival)?
**A.** The T/C was 100 % of control.

**Q.** For `CC(=O)[O][Hg][c]1s[c]([Hg][O]C(C)=O)[c]([Hg][O]C(C)=O)[c]1[Hg][O]C(C)=O`, which T/C [1] is on record?
**A.** Its T/C is 45 % of control.

**Q.** What about the T/C [2] of the same molecule?
**A.** The T/C was 37 % of control.

**Q.** And the T/C (endpoint: median survival time, dose: 12.5 mg/kg/injection, schedule: Q01DX011 (ip), vehicle: saline, higher = longer survival)?
**A.** The T/C was 91 % of control.

**Q.** With `O=NN(CCCl)C(=O)NCC1CCC(CNC(=O)N(CCCl)N=O)CC1` (configuration not stated) as the molecule, how does the T/C (endpoint: median survival time, dose: 65.0 mg/kg/injection, schedule: Q07DX003 (ip), vehicle: Klucel (hydroxypropylcellulose) (HPC), higher = longer survival) read?
**A.** The T/C was 116 % of control.

**Q.** What about the T/C (endpoint: median survival time, dose: 108.0 mg/kg/injection, schedule: Q07DX003 (ip), vehicle: Klucel (hydroxypropylcellulose) (HPC), higher = longer survival) of the same molecule?
**A.** The T/C was 106 % of control.

**Q.** What about the T/C (endpoint: median survival time, dose: 180.0 mg/kg/injection, schedule: Q07DX003 (ip), vehicle: Klucel (hydroxypropylcellulose) (HPC), higher = longer survival) of the same molecule?
**A.** The T/C was 114 % of control.

**Q.** What about the T/C (endpoint: median survival time, dose: 300.0 mg/kg/injection, schedule: Q07DX003 (ip), vehicle: Klucel (hydroxypropylcellulose) (HPC), higher = longer survival) of the same molecule?
**A.** Its T/C is 106 % of control.

**Q.** What about the T/C (endpoint: median survival time, dose: 500.0 mg/kg/injection, schedule: Q07DX003 (ip), vehicle: Klucel (hydroxypropylcellulose) (HPC), higher = longer survival) of the same molecule?
**A.** The T/C was 114 % of control.

**Q.** What does the source list for `CCN1c2ccccc2C(Cl)(c2ccc(N(C)C)cc2)c2ccccc21`?
**A.** T/C (endpoint: mean tumor weight (est.), dose: 3.13 mg/kg/injection, schedule: Q01DX011 (ip), vehicle: saline, higher = larger tumour): 121 % of control; T/C [1]: 50 % of control; T/C [2]: 47 % of control
